We go through two molecules from PMC7056318, “An algal enzyme required for biosynthesis of the most abundant marine carotenoids” (Science Advances, 2020).

Format in all cases: biochemical
One assay has as its target T1, VDL1 from T. pseudonana (Thalassiosira pseudonana, UniProt B8C0W7).
T1 construct: gene THAPSDRAFT_22076
T1 sequence (B8C0W7 103-423): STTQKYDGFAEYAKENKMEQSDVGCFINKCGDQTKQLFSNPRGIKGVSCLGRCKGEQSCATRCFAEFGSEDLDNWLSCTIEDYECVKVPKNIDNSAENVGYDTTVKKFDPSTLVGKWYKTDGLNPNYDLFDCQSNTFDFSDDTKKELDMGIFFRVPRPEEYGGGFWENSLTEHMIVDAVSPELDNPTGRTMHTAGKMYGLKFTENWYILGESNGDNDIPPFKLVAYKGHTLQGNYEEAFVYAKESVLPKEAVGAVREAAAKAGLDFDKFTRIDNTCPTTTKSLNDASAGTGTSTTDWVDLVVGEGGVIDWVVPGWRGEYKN
The assay can be described thus: HPLC, conversion of violaxanthin to neoxanthin. To be noted: pH 5.2, 20 °C, MGDG, 3 h.

The next assay has as its target T2, PtVDE (Phaeodactylum tricornutum, UniProt B7FUR6).
T2 construct: gene VDE
T2 sequence (B7FUR6 105-437): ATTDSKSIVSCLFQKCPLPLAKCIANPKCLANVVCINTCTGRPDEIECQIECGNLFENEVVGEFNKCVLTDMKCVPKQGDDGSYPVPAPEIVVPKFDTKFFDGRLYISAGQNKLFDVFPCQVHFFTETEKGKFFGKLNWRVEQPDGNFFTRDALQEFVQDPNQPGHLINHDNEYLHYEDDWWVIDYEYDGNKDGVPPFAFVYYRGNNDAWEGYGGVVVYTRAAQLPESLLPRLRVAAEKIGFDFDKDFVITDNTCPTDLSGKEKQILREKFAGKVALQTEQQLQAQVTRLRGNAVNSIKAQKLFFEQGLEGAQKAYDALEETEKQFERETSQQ
The assay can be described thus: HPLC de-epoxidase assay, dose-response.

In the next assay the target is T3, PtVDL1 (Phaeodactylum tricornutum, UniProt B7G087).
T3 construct: gene VDL1
T3 sequence (B7G087 112-453): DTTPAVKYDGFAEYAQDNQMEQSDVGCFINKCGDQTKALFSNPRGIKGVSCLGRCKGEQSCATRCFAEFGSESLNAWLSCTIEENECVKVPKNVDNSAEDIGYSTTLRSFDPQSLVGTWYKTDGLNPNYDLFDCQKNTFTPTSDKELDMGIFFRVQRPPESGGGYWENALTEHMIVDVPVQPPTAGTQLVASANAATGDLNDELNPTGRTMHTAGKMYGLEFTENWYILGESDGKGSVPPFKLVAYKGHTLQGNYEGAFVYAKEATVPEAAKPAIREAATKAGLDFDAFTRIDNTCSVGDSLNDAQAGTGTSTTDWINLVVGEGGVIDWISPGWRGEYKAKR
The assay can be described thus: HPLC tautomerase assay, dose-response.

For the molecule `CC(/C=C/C=C(C)/C=C/[C@@]12O[C@]1(C)C[C@@H](O)CC2(C)C)=C\C=C\C=C(C)\C=C\C=C(C)\C=C\[C@@]12O[C@]1(C)C[C@@H](O)CC2(C)C` [violaxanthin], the “HPLC, conversion of violaxanthin to neoxanthin” value at VDL1 from T. pseudonana was “also showed violaxanthin-neoxanthin tautomerase activity in vitro”.
With `OC(CS)C(O)CS` (stereo not drawn) [DTT], the IC50 turned out to be 0.68 mM against PtVDE and 73 mM at PtVDL1.
